We go through four molecules from article PMC8751734 (Cell Chemical Biology, 2022).

One data set has as its system PL^pro. As to conditions: ref Shin et al., 2020 (GRL-0617); Klemm et al., 2020 (rac5c); cited from earlier work.
A short description of data set [1]: Pharmacokinetics study of ACF in CD-1 mice. It counts as in vivo.
Data set [2] deals with SARS-CoV-2. Description: Activity of ACF components against SARS-CoV-2 in vitro. It counts as cell-based.
Data set [3] concerns SARS-CoV-2. It counts as cell-based.
Data set [4] deals with SARS-CoV-2. Format: cell-based. This is another data set of the same source.
Data set [5] relates to SARS-CoV-2. It counts as cell-based. This is another data set of the same source.
Data set [6] has as its system SARS-CoV-2. As to conditions: mouse, in vivo.

As for `COc1cc(CNC(=O)C2CCN(C(C)c3cccc4ccccc34)CC2)ccn1` (racemic) [rac5c], the reported activity entry with PL^pro was “active at the micromolar range”.
As for `Cc1ccc(N)cc1C(=O)N[C@H](C)c1cccc2ccccc12` [GRL-0617], the reported activity entry in the data set with PL^pro is “active at the micromolar range”.
Consider `Nc1ccc2cc3ccc(N)cc3nc2c1` [PF, 3,6-diaminoacridine], for which the “levels / exposure in lungs” value in data set [1] (IV 15 mg/kg and PO 100 mg/kg of commercial ACF) is recorded as “very high”. The oral bioavailability entry in data set [1] (components of commercial ACF) is recorded as “much higher bioavailability”. Moreover, in the data set on SARS-CoV-2 [2], the “activity against SARS-CoV-2 in vitro” value is “active”.
Consider `CCC(CC)COC(=O)[C@H](C)N[P@](=O)(OC[C@H]1O[C@@](C#N)(c2ccc3c(N)ncnn23)[C@H](O)[C@@H]1O)Oc1ccccc1` [remdesivir], for which the “elimination of SARS-CoV-2 (confocal microscopy)” value with SARS-CoV-2 [3] is on record as “nearly complete elimination”. The “inhibition of SARS-CoV-2 replication (confocal microscopy)” value in the data set with SARS-CoV-2 [4] is “inferior compared with 500 nM ACF”. Moreover, in the data set on SARS-CoV-2 [5], the “virus yields in HAE cultures compared with PBS/untreated control” value is reported as “significantly inhibited virus yields”. In the data set with SARS-CoV-2 [6], the “adverse effects in mice” value was “No adverse effects were observed” and the “decrease of viral loads in the brain” value is on record as 2–3 orders of magnitude.
